What was measured:
[1] = test system: thymocytes; assay: Thymocyte apoptosis under other apoptotic stimuli; format: cell-based, mice; conditions: Ich-3 mutant thymocytes; dexamethasone 1 μM; 10 nM PMA and 500 nM Ca2+ ionophore
Method: Thymocytes are sensitive to several apoptotic stimuli such as irradiation and dexamethasone (Cohen, J. J., et al., Annu. Rev. Immunol. 10:267-293 (1992)). To determine if apoptosis of thymocytes is affected by a mutation in the Ich-3 locus, Ich-3−/− thymocytes were examined for defects in apoptosis using a variety of apoptotic induction signals. Thymocytes isolated from 6-7 week old, wild-type and Ich-3 mutant mice were treated with 500 rads of y-irtadiation, or dexamethasone (1(IM, or 10 nM phorbol myristate acetate (PMA) and 500 nM Ca^2+ ionophore, and cell viability was examined 10 hr or 24 hr after treatment by using FCAS analysis after staining with propidine iodine. (Schwartz, et al., “Cell Death—Methods in Cell Biology.” vol. 46, Academic Press).

[2] = test system: embryonic fibroblasts; assay: Granzyme/perforin induced apoptosis of embryonic fibroblasts (Hoechst dye); format: cell-based, mice; conditions: Ich-3−/− EF cells; up to 0.8 μg/ml granzyme with 50 ng/ml perforin
Method: FIGS. 9A-9B. Ich-3 deficient EF cells are resistant to Granzyme B and Granzyme 3 induced apoptosis. Embryonic fibroblasts from Ich-3−/− and wild type controls were treated with varying concentrations of granzyme B (FIG. 9A) or granzyme 3 (FIG. 9B) in the presence of a constant amount of perforin (50 ng/ml) for a period of 2 and 8 hrs, respectively. The percentage of apoptosis cells was determined from cell counts after staining with Hoechst dye (Chen et al., 1995). Control wells contained cells alone incubated with or without perforin. Data points represent the percentage of apoptotic cells for a particular dilution of granzyme minus the percentage of apoptotic cells observed in medium alone.
Granule serine protease (GraB) derived from cytotoxic T lymphocytes (CTL) can induce apoptosis in the presence of the pore forming protein perforin (Shi et al., J. Exp. Med. 176:1521-1529 (1992)). To determine the role of ICH-3 in apoptosis induced by GraB, the ability of Ich-3−/− embryonic fibroblasts (EF) to undergo apoptosis following treatment with GraB or Granzyme 3 (Gra3) and perforin was examined. Embryonic fibroblasts from Ich-3−/− mice and wild type littermate controls were treated with varying concentrations of GraB or Gra3 in the presence of a constant amount of perforin (50 ng/ml) for a period of 2 and 8 hrs, respectively.

[3] = target: T1, His-tagged ICH-3 protein (Mus musculus, UniProt P70343); assay: In vitro cleavage assay of ICH-3 by GraB (Western blot); format: biochemical; conditions: 20 ng GraB, 30° C., 1 hour, 10 mM DTT
T1 construct: An EcoRI fragment from the cDNA clone BSNO12 encoding the full length Ich-3 was subdloned into EcoRI site of pTrcHis (Invitrogen); polyhistidine (six histidines) (N); made in house; host or cells: E. coli
T1 sequence (P70343 81-373): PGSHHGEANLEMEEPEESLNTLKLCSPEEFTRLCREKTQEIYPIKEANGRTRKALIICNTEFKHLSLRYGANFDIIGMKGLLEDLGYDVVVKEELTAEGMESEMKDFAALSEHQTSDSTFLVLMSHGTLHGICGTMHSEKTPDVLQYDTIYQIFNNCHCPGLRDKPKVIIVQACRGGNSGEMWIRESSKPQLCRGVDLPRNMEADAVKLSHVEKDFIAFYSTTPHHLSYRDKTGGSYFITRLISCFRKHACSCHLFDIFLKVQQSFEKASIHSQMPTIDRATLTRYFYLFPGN
Method: FIG. 5. Cleavage of ICH-3 protein by granzyme B. 10 μg His-tagged ICH-3 protein purified from E. coli was incubated with 20 ng of GraB in the presence of 10 mM DTT at 30° C. for 1 hour. The result was detected by Western blotting with a peptide antibody against p20 portion of ICH-3.
For in vitro cleavage of ICH-3 by GraB, […] purified His-tagged ICH-3 protein was incubated with 20 ng of GraB in the presence of 50 mM Tris-HCl, pH 7.5, 0.5 mM EDTA, 0.5 mM Sucrose and 10 mM DTT in a total volume of 10 μl. The mixture was incubated at 30° C. for 1 hour and the cleavage was detected by Western blotting with a peptide antibody against the p20 portion of ICH-3.
To examine whether GraB can cleave ICH-3, a His-tagged ICH-3 protein was expressed in E. coli. His-tagged ICH-3 protein purified from bacteria was mixed with or without active GraB and incubated at 30° C. for 1 hour. The cleavage products were identified by Western blot with a peptide antibodies against the p20 or a monoclonal antibody against p10 portion of ICH-3. As show in FIG. 5, the fulll length ICH-3 band disappeared after incubation with GraB: a new 20 kDa band appeared which is detected by an anti-ICH-3 p20 antibody and a new 10 kDa band which is recognized by a monoclonal antibody against p10 of ICH-3. […] Fragments around 30 kDa are the predicted sizes of the cleavages at Asp 59 and Asp 80. […]

[4] = test system: apoptosis in an cell-free system; conditions: read-out: concentration to cause 50% inhibition of apoptosis; cited from earlier work
[5] = test system: poly(ADP-ribose) polymerase (PARP) cleavage; conditions: cited from earlier work
[6] = target: ICH-3 protein (mouse) (mouse) (UniProt P70343)

Molecule: phorbol myristate acetate [PMA and Ca^2+ ionophore]
- resistance of thymocytes to induced apoptosis [1]: not resistant

Molecule: GraB: granule serine protease required for the cytotoxic activity of lymphocytes
- apoptosis of EF cells [2]: only baseline levels of apoptosis
- cleavage of ICH-3 [3]: can cleave ICH-3 into p20 and p10

Molecule: Ac-DEVD-CHO
- IC50 [4]: 1000 nM
- dose inhibiting PARP cleavage [5]: 1 nM

Molecule: granzyme B (enzyme)
- percentage of apoptotic embryonic fibroblasts (Hoechst dye) after GraB and perforin [6]: 40%

B1: Gra3: Granzyme 3 (protein, UniProt P49863 27-264, looked up)
Granzyme K: IIGGKEVSPHSRPFMASIQYGGHHVCGGVLIDPQWVLTAAHCQYRFTKGQSPTVVLGAHSLSKNEASKQTLEIKKFIPFSRVTSDPQSNDIMLVKLQTAAKLNKHVKMLHIRSKTSLRSGTKCKVTGWGATDPDSLRPSDTLREVTVTVLSRKLCNSQSYYNGDPFITKDMVCAGDAKGQKDSCKGDSGGPLICKGVFHAIVSGGHECGVATKPGIYTLLTKKYQTWIKSNLVPPHTN
- apoptosis of EF cells [2]: only baseline levels of apoptosis
